Laboratory results published in ChEMBL document CHEMBL4811245, “Design, synthesis and biological evaluation of brain penetrant benzazepine-based histone deacetylase 6 inhibitors for alleviating stroke-induced brain infarction” (Eur J Med Chem, 2021).
Calls of active or inactive are those of the source. The calls are words filed in the database; no cut-off is given here.

Legend:
[1] = target: T1, Protein deacetylase HDAC6 (Homo sapiens, UniProt Q9UBN7); assay: Inhibition of human HDAC6 preincubated for 15 mins followed by substrate addition by fluorescence-based assay
T1 sequence (Q9UBN7 whole entry): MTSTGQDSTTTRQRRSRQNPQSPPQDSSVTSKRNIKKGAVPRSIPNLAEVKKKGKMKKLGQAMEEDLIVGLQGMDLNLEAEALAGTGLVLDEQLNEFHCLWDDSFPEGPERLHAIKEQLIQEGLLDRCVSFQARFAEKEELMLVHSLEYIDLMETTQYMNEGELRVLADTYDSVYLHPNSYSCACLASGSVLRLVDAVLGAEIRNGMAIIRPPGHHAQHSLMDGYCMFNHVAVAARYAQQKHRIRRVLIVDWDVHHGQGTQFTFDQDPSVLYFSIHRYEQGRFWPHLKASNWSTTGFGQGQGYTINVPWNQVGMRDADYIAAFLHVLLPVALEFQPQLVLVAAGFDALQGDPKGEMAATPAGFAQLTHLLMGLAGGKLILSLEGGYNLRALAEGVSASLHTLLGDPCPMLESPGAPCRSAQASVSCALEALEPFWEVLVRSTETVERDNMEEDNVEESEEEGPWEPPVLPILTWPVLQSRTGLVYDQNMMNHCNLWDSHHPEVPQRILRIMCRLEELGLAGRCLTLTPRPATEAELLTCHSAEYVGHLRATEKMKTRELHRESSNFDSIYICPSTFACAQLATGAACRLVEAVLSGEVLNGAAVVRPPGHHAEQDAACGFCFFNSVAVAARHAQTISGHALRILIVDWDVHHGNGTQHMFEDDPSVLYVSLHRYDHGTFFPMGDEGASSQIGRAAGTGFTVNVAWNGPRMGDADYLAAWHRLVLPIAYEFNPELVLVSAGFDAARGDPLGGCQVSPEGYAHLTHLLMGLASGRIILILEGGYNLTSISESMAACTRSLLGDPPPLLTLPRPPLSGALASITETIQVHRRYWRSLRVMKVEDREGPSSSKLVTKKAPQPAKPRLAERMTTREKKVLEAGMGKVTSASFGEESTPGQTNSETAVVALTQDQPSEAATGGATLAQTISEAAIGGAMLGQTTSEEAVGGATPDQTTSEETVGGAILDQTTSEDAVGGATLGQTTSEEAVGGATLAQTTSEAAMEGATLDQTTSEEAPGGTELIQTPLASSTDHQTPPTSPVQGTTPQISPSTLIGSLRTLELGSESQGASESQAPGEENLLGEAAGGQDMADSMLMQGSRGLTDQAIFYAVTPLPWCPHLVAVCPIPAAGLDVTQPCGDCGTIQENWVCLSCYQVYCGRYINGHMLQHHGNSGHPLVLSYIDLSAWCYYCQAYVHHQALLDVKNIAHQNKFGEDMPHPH

[2] = target: Histone deacetylase 1 (Homo sapiens, UniProt Q13547); assay: Inhibition of human HDAC1 preincubated for 15 mins followed by substrate addition by fluorescence-based assay
[3] = Ratio of drug concentration in brain to plasma of Sprague-Dawley rat at 50 mg/kg, po measured after 60 to 180 mins by LC/MS-MS analysis; assay type: ADME, organism-based; conditions: time 60-180 min
[4] = target: T2, Protein deacetylase HDAC6 (Homo sapiens) (UniProt Q9UBN7); assay: Inhibition of HDAC6 in human SH-SY5Y cells assessed as fold increase in ratio of acetylated histone H3 to histone H3 at 10 uM incubated for 24 hrs by Western blot analysis; assay type: cell-based
T2 sequence (whole entry): T1 sequence (Q9UBN7 whole entry)

[5] = tested on: Rattus norvegicus; assay: Neuroprotective activity in Sprague-Dawley rat middle cerebral artery occlusion model assessed as reduction in cerebral infarction at 25 mg/kg, ip after 24 hrs by TTC staining based assay (reference value: 21.22%); assay type: functional; design: scale not given: the % may be the effect or the level left
[6] = Drug concentration in plasma of C57 mouse at 20 mg/kg, ip measured after 4 hrs by LC/MS-MS analysis; assay type: ADME, organism-based
[7] = target: T2, Protein deacetylase HDAC6 (Homo sapiens); assay: Inhibition of HDAC6 in human SH-SY5Y cells assessed as increase in acetylated alpha-tubulin levels incubated for 24 hrs by Western blot analysis; assay type: cell-based; conditions: dose 0.1-10 µM
[8] = in vivo; conditions: C57, mouse, brain/plasma, ip, 20 mg/kg
[9] = target: T2, Protein deacetylase HDAC6 (Homo sapiens); assay: Inhibition of HDAC6 in human SH-SY5Y cells assessed as increase in acetylated histone H3 levels at 0.1 to 10 uM incubated for 24 hrs by Western blot analysis; assay type: cell-based; conditions: dose 0.1-10 µM
[10] = Drug concentration in plasma of C57 mouse at 20 mg/kg, ip measured after 1 hr by LC/MS-MS analysis; assay type: ADME, organism-based
[11] = tested on: Rattus norvegicus; assay: Neuroprotective activity in Sprague-Dawley rat middle cerebral artery occlusion model assessed as reduction in neurobehavioral defects at 25 mg/kg, ip after 24 hrs by TTC staining based assay; assay type: functional, organism-based
[12] = Drug concentration in brain of C57 mouse at 20 mg/kg, ip measured after 1 hr by LC/MS-MS analysis; assay type: ADME, organism-based; conditions: read-out: Ct
[13] = target: T2, Protein deacetylase HDAC6 (Homo sapiens); assay: Inhibition of HDAC6 in human SH-SY5Y cells assessed as fold increase in ratio of acetylated alpha-tubulin to alpha-tubulin at 1 uM incubated for 24 hrs by Western blot analysis; assay type: cell-based
[14] = target: T2, Protein deacetylase HDAC6 (Homo sapiens); assay: Inhibition of HDAC6 in human SH-SY5Y cells assessed as fold increase in ratio of acetylated alpha-tubulin to alpha-tubulin at 10 uM incubated for 24 hrs by Western blot analysis; assay type: cell-based
[15] = in vivo; conditions: C57, mouse, brain/plasma, ip, 20 mg/kg; remark: listed apart in the source
[16] = Drug concentration in brain of C57 mouse at 20 mg/kg, ip measured after 4 hrs by LC/MS-MS analysis; assay type: ADME, organism-based; conditions: read-out: Ct
[17] = Ratio of drug concentration in brain to plasma of mouse at 5 to 50 mg/kg, ip after 2 hrs by HPLC/MS-MS analysis; assay type: ADME, organism-based; conditions: dose 5-50 mg/kg, read-out: BPR
[18] = tested on: Rattus norvegicus; assay: Neuroprotective activity in Sprague-Dawley rat middle cerebral artery occlusion model assessed as reduction in neurobehavioral defects at 5 mg/kg, ip after 24 hrs by TTC staining based assay; assay type: functional, organism-based

Chain of Histone deacetylase 1 (Q13547 whole entry): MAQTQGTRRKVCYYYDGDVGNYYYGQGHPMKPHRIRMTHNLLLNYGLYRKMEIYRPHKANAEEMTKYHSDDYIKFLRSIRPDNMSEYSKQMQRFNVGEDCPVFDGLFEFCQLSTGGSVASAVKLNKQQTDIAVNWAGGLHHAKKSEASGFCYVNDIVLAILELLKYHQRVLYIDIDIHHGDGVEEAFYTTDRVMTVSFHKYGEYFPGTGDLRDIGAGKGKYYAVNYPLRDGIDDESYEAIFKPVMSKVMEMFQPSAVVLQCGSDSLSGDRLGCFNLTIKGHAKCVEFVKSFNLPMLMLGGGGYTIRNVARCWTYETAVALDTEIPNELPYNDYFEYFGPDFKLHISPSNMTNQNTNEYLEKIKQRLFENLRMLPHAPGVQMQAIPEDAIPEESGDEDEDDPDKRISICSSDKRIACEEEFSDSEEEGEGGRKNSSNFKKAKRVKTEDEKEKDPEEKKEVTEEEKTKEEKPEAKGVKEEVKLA

COc1ccc2c(c1)CCN(Cc1ccc(C(=O)NO)cc1)CC2
IC50 [1]: 29 nM
IC50 [2]: 431 nM

O=C(NO)c1ccc(CN2CCCCc3ccccc32)cc1
IC50 [1]: 6.4 nM
IC50 [2]: 392 nM

COc1ccc(-c2ccccc2)c2c1CCN(Cc1ccc(C(=O)NO)cc1)CC2
IC50 [1]: 497 nM
IC50 [2]: 826 nM

O=C(NO)c1ccc(CN2CCCCc3ccc(-c4ccccc4)cc32)cc1
IC50 [2]: 706 nM

O=C(NO)c1ccc(CN2CCC[S+]([O-])c3ccccc32)cc1 (stereo not given)
IC50 [1]: 13 nM
IC50 [2]: 166 nM

O=C(NO)c1ccc(CN2CCCCc3ccc(F)cc32)cc1
IC50 [1]: 19 nM
IC50 [2]: 761 nM

O=C(NO)c1ccc(CNc2cccc3cccnc23)cc1
Kp [3]: 1.01

Cc1ccc2c(c1)N(Cc1ccc(C(=O)NO)cc1)CCCC2
IC50 [1]: 12 nM
IC50 [2]: 377 nM

O=C(NO)c1ccc(CN2CCCCc3ccc(C4CC4)cc32)cc1
IC50 [2]: 509 nM

O=C(NO)c1ccc(CN2CCCSc3ccccc32)cc1
FC [4]: 1.1
Activity [5]: 11.47%
concentration at 4 h [6]: 7.03 ng/mL
inhibition [7]: Dose-Dependent Effect
Kp at 4 h [8]: 2.35
inhibition [9]: Active
concentration at 1 h [10]: 96.1 ng/mL
Activity [11]: Active
IC50 [1]: 1.8 nM
concentration at 1 h [12]: 220 ng/mL
FC [13]: 1.3
FC [14]: 1.4
Kp at 1 h [15]: 2.3
concentration at 4 h [16]: 16.6 ng/mL

O=C(NO)c1cnc(NC2(c3ccccc3)CC2)nc1
Kp at 2 h [17]: 1.22

O=C(NO)c1ccc(CN2CCCOc3ccccc32)cc1
concentration at 4 h [6]: 4.29 ng/mL
Kp at 4 h [8]: 2.88
concentration at 1 h [10]: 59.4 ng/mL
concentration at 1 h [12]: 111 ng/mL
Kp at 1 h [15]: 1.98
concentration at 4 h [16]: 12.2 ng/mL

O=C(NO)c1ccc(CN2CCCc3cc(Cl)ccc32)cc1
concentration at 4 h [6]: 4.13 ng/mL
concentration at 1 h [10]: 256 ng/mL
concentration at 1 h [12]: 468 ng/mL
concentration at 4 h [16]: 13.1 ng/mL

CCCCC1OC(=O)c2ccccc21 (stereo not given)
Activity [18]: Active

O=C(NO)c1cnc(NC2(c3cccc(F)c3)CCCCC2)nc1
Kp at 2 h [17]: 1.26

COc1cc2c(cc1OC)N(Cc1ccc(C(=O)NO)cc1)CCCC2
IC50 [1]: 14 nM
IC50 [2]: 295 nM

COc1ccc2c(c1)N(Cc1ccc(C(=O)NO)cc1)CCCC2
concentration at 4 h [6]: 8.18 ng/mL
Kp at 4 h [8]: 2.29
concentration at 1 h [10]: 526 ng/mL
Activity [11]: Active
concentration at 1 h [12]: 957 ng/mL
Kp at 1 h [15]: 1.85
concentration at 4 h [16]: 18.7 ng/mL

O=C(NO)c1ccc(CN2CCCCc3cc(Cl)ccc32)cc1
IC50 [1]: 37 nM
IC50 [2]: 819 nM

COc1ccc(C2CC2)c2c1CCN(Cc1ccc(C(=O)NO)cc1)CC2
IC50 [2]: 502 nM

COc1ccc(Br)c2c1CCN(Cc1ccc(C(=O)NO)cc1)CC2
IC50 [1]: 111 nM
IC50 [2]: 385 nM

O=C(NO)c1ccc(CN2CCc3ccccc3CC2)cc1
IC50 [1]: 255 nM
IC50 [2]: 804 nM

O=C(NO)c1ccc(CN2CCCc3ccccc3C2)cc1
IC50 [1]: 100 nM
IC50 [2]: 1000 nM

CN1CCc2c(c3ccccc3n2Cc2ccc(C(=O)NO)cc2)C1 [TUBASTATIN A]
Kp at 2 h [17]: 0.18
Activity [5]: 13.02%
Activity [11]: Active

COc1cccc2c1CCN(Cc1ccc(C(=O)NO)cc1)CC2
IC50 [1]: 318 nM
IC50 [2]: 798 nM
